Assay results taken from patent US4693977A, “Enzyme immobilization for producing cephalosporin antibiotics” (Queen's University at Kingston, priority 1986, dated 1987).
“And” between values parts separate entries of the source, which are not always exact repeats. Equal entries are not always repeated.

Tests used:
[1] = biological target: T1, cyclase, epimerase and ring expansion enzyme from a cell-free extract of S. clavuligerus (Streptomyces clavuligerus, UniProt P10621); experiment: Cyclization / ring expansion of peptides with enzymes of S. clavuligerus cell-free extract (SPCFX); type: biochemical
T1 construct: from a cell-free extract of S. clavuligerus; endogenous in cells; host or cells: Streptomyces clavuligerus (cell-free extract / salt-precipitated cell-free extract)
T1 sequence (P10621 1-329): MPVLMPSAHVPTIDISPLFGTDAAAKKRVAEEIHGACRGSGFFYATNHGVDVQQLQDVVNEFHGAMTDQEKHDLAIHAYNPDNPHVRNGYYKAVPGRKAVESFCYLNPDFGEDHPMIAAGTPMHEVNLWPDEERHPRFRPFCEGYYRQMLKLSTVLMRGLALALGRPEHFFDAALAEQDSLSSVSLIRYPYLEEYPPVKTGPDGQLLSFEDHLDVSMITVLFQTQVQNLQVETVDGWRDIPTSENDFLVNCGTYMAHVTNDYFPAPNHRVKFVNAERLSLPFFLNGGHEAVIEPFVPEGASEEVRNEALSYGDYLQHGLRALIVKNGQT
Procedure: (§1) Cyclization activity of enzyme preparations was measured in reaction mixtures containing: bis-δ-(L-α-amino-adipyl-L-cysteinyl-D-valine) (ACV)2 0.306 mM, […] 4 mM, Na ascorbate 2.8 mM, FeSO4 45 μM, tris-HCl buffer 0.05M, pH 7.0, enzyme preparation 0.03-0.3 ml, final volume 0.4 ml. Reaction mixtures were incubated at 20° C. for up to 4 hours and stopped by cooling on ice or by the addition of 0.4 ml methanol.
(§2) Ring expansion activity was followed using the cyclization assay system described above but supplemented with ATP 0.5 mM, α-ketoglutarate 1 mM, KCl 7.5 mM, and MgSO4 7.5 mM. Total volume and incubation conditions were the same as for the cyclization assay.
(§3) To 0.4 ml of reaction mixture were added 0.9 mM of ACV dimer as produced in Example 4, 50.0 mM Tris-HCl pH 7.0 buffer and a mixture of the three enzymes as produced in Example 1 from a cell-free extract of S. clavuligerus, together with 45.0 μM ferrous sulfate and 2.8 mM ascorbic acid as optimized amounts of essential co-factors. DTT was added in excess of the amount required to reduce ACV dimer to ACV monomer. The reaction was continued for approximately 2 hours at 20° C. and then terminated by addition of 0.4 ml methanol to precipitate protein.
(§4) The procedures of Example 7 were repeated using L-aspartyl, L-glutamyl, D-α-aminoadipyl, adipyl, glycyl-L-α-aminoadipyl and N-acetyl-L-α-aminodipyl-containing peptides. […] A prokaryotic system is, therefore, required. Modification of the valinyl moiety, as noted above, has been considered in detail. Substrates modified in the valinyl moiety such as: [drawing 17] where R1 is H, a lower alkyl or functionalized carboxylic group; and R2 is H or a lower alkyl group may be cyclized with carbon-sulfur bond formation with retention of configuration at the beta carbon of the valine analog, leading to isopenicillin N analogs of the type: [drawing 18] Following epimerization to penicillin N analogs of the type: [drawing 19] ring expansion leads to cephalosporin analogs of the type: with transfer of the beta carbon atom attached to C2 of (11) into C2 of the six membered ring.
(§5) Methanol inactivated reaction mixtures (from Examples 7 and 8) were centrifuged at 12,000×g for 5 min to remove precipitated protein before analysis. Reaction mixtures from Example 9 were examined directly. The chromatographic equipment used was: M-6000A pump, UK-6 injector, M-480 variable wavelength director, M-420 data module and Bondapak-C18 column (Rad Pak A in a Z module) as stationary phase. All equipment was from Waters Scientific Co., Mississauga, Ontario. The mobile phase consisted of methanol/0.05 M potassium phosphate buffer, pH 4.0 (5/95). The methanol content of the mobile phase depended upon the particular separation and the source of the material e.g. Examples 7 and 8 or Example 9. A short precolumn (packed with Bondapak C18 /Corasil) was used to guard the main column. UV-absorbing material was detected at 220 nm at a sensitivity of 0.02 AUFS.

[2] = test system: Micrococcus luteus ATCC. 9341; experiment: Agar diffusion bioassay of cyclization reaction mixtures versus M. luteus; type: cell-based; conditions: cyclization reaction mixture, SPCFX, 2h at 20° C., 20 μl
Excerpt: (§6) Antibiotic in reaction mixtures was estimated by the agar diffusion method. Cyclization reaction mixtures were bioassayed using Micrococcus luteus ATCC. 9341 and Escherichia coli Ess as indicator organisms. Ring expansion reaction mixtures were bioassayed using E. coli Ess as indicator organism in agar plates supplemented with penicillinase at 2×10^5 units/ml
(§7) The procedure of Example 7 was repeated with ACV analogs in which valine was replaced by alpha-aminobutyric acid (R1 =R2 =H) and allo-isoleucine (R1 =H, R2 =C2 H5), as follows: (AC-aminobutyrate)2 (ACAB)2 and (AC-alloisoleucine)2 (ACI)2 were dissolved in water, neutralized, and lyophilized in 0.1 and 1.0 mg amounts. These peptides were then used as substrates in cyclization and ring expansion assays as follows: One hundred micrograms of (ACV)2 from Example 6 was used as substrate in a cyclization and a ring expansion assay system using 0.1 ml of salt-precipitated cell-free extract as enzyme source in each case. (Final concentration of (ACV)2 is 0.306 mM). Identical cyclization and ring expansion assays were set up in which 100 μg (ACAB)2 or 1.0 mg (ACI)2 replaced the (ACV)2 as substrate and 0.3 ml of salt precipitated cell-free extract was used as enzyme source. No substrate controls were also prepared. The reaction mixtures were incubated for 2h at 20° C. At the end of incubation 20 μl amounts of the cyclization reaction mixtures were bioassayed versus M. luteus and E. coli Ess; 20 μl amounts of the ring expansion reaction mixtures were bioassayed versus E. coli Ess plus and minus penicillinase.

[3] = test system: E. coli Ess + penicillinase; experiment: Agar diffusion bioassay of ring expansion reaction mixtures, plates with penicillinase; type: cell-based, Escherichia coli; conditions: for Zone of Inhibition, E. coli Ess + penicillinase: SPCFX, 2h at 20° C., 20 μl; for Cephalosporin C "equivalents" / Zone of Inhibition: immobilized enzyme reactor reaction mixture
Procedure: (§8) 2 ml of the reaction mixture was applied to the immobilized enzyme reactor by means of a peristaltic pump operating at 40 ml/h. Effluent was collected into a 13×100 mm test tube from which the original reaction mixture was pumped, and therefore was recycled continuously through the enzyme reactor. The enzyme reactor was operated at 21° C. and 20 μl aliquots were removed at 15 minute time intervals for analysis for antibiotic formation. (Table I).
as §6, §7

[4] = test system: Escherichia coli Ess; experiment: Agar diffusion bioassay of reaction mixtures versus E. coli Ess; type: cell-based; conditions: for Zone of Inhibition, E. coli Ess: SPCFX, 2h at 20° C., 20 μl
Excerpt: as §6, §7

[5] = biological target: T2, immobilized SPCFX (cyclase, epimerase, ring expansion enzyme) on DEAE Trisacryl (Streptomyces clavuligerus, UniProt P10621); experiment: Conversion of ACV on immobilized SPCFX column (immobilized enzyme reactor), HPLC; type: biochemical; conditions: 1 mg ACV, cycled 1.5 hours at 40 ml per hour through 2 ml immobilized SPCFX
T2 construct: Cell-free extracts were prepared by washing 40-48 h cells of S. clavuligerus; endogenous in cells
T2 sequence (P10621 1-329): T1 sequence (P10621 1-329)
Procedure: DEAE-Trisacryl® resin was loaded into a column 0.4×5.8 cm (packed bed volume, 1 ml), washed with 3×2 ml of the same EDTA buffer, and allowed to drain to dryness by gravity. One milliliter of the salt-precipitated cell-free extract above was applied to the column. The effluent was collected and reapplied to the column twice to ensure complete enzyme loading. The column was washed with 2×1 ml of the same EDTA buffer, drained dry and centrifuged for 3 min. at 500×g to remove excess buffer. This immobilized enzyme reactor was stored at 4° C. when not in use.
as §8
Methanol inactivated reaction mixtures (from Examples 7 and 8) were centrifuged at 12,000×g for 5 min to remove precipitated protein before analysis. Reaction mixtures from Example 9 were examined directly. […] UV-absorbing material was detected at 220 nm at a sensitivity of 0.02 AUFS. […]

[6] = test system: cyclase, epimerase and ring expansion enzyme from a cell-free extract of S. clavuligerus; experiment: Cyclization / ring expansion of peptides with enzymes of S. clavuligerus cell-free extract (SPCFX); type: biochemical
Procedure: as §1, §2, §3, §4, §5

[7] = ring expansion reaction mixture
[8] = mixture of the three enzymes, approx. 2 hours at 20° C., without alpha-ketoglutarate

CC(C)[C@@H](NC(=O)[C@H](CS)NC(=O)CCCCC(=O)O)C(=O)O [adipyl-containing peptide]
cyclization of the peptide ([1]; procedures of Example 7): Cyclization was observed | cyclization to the corresponding penicillin, carboxybutylpenicillin ([1]; procedures of Example 7): ~20%

CC[C@@H](NC(=O)[C@H](CSSC[C@H](NC(=O)CCC[C@H](N)C(=O)O)C(=O)N[C@H](CC)C(=O)O)NC(=O)CCC[C@H](N)C(=O)O)C(=O)O [(ACAB)2]
Zone of Inhibition, M. luteus [2]: 8.0 mm | formation of penicillinase-insensitive antibiotic [3, 7]: do not form penicillinase-insensitive antibiotic | Zone of Inhibition, E. coli Ess + penicillinase [3, 7]: 0 mm | antibiotic activity equivalent to a solution of cephalosporin C against E. coli Ess ([4]; cyclization reaction mixture): 0.9 µg/mL | Zone of Inhibition, E. coli Ess ([4]; cyclization reaction mixture): 12.5 mm | formation of antibiotic affecting E. coli Ess [4, 7]: nor do they form any antibiotic affecting E. coli Ess | Zone of Inhibition, E. coli Ess [4, 7]: 8.0 mm

CC(C)[C@@H](NC(=O)[C@H](CS)NC(=O)CCC[C@H](N)C(=O)O)C(=O)O [ACV, L-aminoadipyl-L-cysteinyl-D-valine]
conversion of ACV into a mixture of isopenicillin N, penicillin N, desacetoxycephalosporin C and desacetylcephalosporin C, by HPLC [5]: approximately 90% | ring expansion to a cephalosporin [6, 8]: did not occur | conversion product ([6]; mixture of the three enzymes, with 1 mM alpha-ketoglutarate): converted to desacetoxycephalosporin C | conversion product by bioassay and HPLC [1, 8]: converted to a mixture of isopenicillin N and penicillin N

CC(=O)N[C@@H](CCCC(=O)N[C@@H](CS)C(=O)N[C@@H](C(=O)O)C(C)C)C(=O)O
conversion product with SPCFX ([6]; via an initial deacylation to ACV): penicillin N and isopenicillin N | cyclization of the peptide ([1]; procedures of Example 7): Cyclization was observed

CC[C@H](C)[C@@H](NC(=O)[C@H](CSSC[C@H](NC(=O)CCC[C@H](N)C(=O)O)C(=O)N[C@@H](C(=O)O)[C@@H](C)CC)NC(=O)CCC[C@H](N)C(=O)O)C(=O)O [(ACI)2]
Zone of Inhibition, M. luteus [2]: 13.0 mm | antibiotic activity equivalent to a solution of cephalosporin C, E. coli Ess + penicillinase plates [3, 7]: 0.9 µg/mL | Zone of Inhibition, E. coli Ess + penicillinase [3, 7]: 12.5 mm | antibiotic activity equivalent to a solution of cephalosporin C against E. coli Ess ([4]; cyclization reaction mixture): 4.85 µg/mL | Zone of Inhibition, E. coli Ess ([4]; cyclization reaction mixture): 20.0 mm | Zone of Inhibition, E. coli Ess [4, 7]: 20.0 mm

CC(C)[C@@H](NC(=O)[C@H](CSSC[C@H](NC(=O)CCC[C@H](N)C(=O)O)C(=O)N[C@@H](C(=O)O)C(C)C)NC(=O)CCC[C@H](N)C(=O)O)C(=O)O [(ACV)2, bis-δ-(L-α-amino-adipyl-L-cysteinyl-D-valine)]
Zone of Inhibition, M. luteus [2]: 29.0 mm | Cephalosporin C "equivalents" ([3]; sample time 0 min): 0 | Zone of Inhibition ([3]; sample time 0 min, 20 μl aliquot): 0 mm | Cephalosporin C "equivalents" ([3]; sample time 15 min): .031 μm | Zone of Inhibition ([3]; sample time 15 min): 15 mm | Cephalosporin C "equivalents" ([3]; sample time 30 min): .086 μm | Zone of Inhibition ([3]; sample time 30 min): 19.5 mm | Cephalosporin C "equivalents" ([3]; sample time 45 min): .062 μm | Zone of Inhibition ([3]; sample time 45 min): 18.5 mm | Cephalosporin C "equivalents" ([3]; sample time 60 min): .136 μm | Zone of Inhibition ([3]; sample time 60 min): 21.5 mm | Cephalosporin C "equivalents" ([3]; sample time 75 min): .136 μm | Zone of Inhibition ([3]; sample time 75 min): 21.5 mm | antibiotic activity equivalent to a solution of cephalosporin C, E. coli Ess + penicillinase plates [3, 7]: 7.6 µg/mL | Zone of Inhibition, E. coli Ess + penicillinase [3, 7]: 22 mm and 22.0 mm | antibiotic activity equivalent to a solution of cephalosporin C against E. coli Ess ([4]; cyclization reaction mixture): 29.3 µg/mL | Zone of Inhibition, E. coli Ess ([4]; cyclization reaction mixture): 28.0 mm | Zone of Inhibition, E. coli Ess [4, 7]: 28.5 mm
